Patent US11130960B2, “Methods for conferring or enhancing herbicide resistance on plants and/or alga with protoporphyrinogen oxidase variants” (FARM HANNONG CO., LTD., priority 2014, dated 2021)

Key:
CyPPO4 = assay: Growth inhibition of transformed PPO-deficient E. coli BT3(ΔPPO) on LB agar medium; assay type: cell-based, Lyngbya sp. PCC 8106; settings: 37° C., 16~20 hours
Excerpt: (§1) To test herbicide resistance of CyPPO2, CyPPO4, CyPPO8 and CyPPO12 isolated in Example 1, PPO-deficient BT3 E. coli [hereinafter, referred to as BT3(ΔPPO)] was transformed with CyPPO2, CyPPO4, CyPPO8 or CyPPO12 gene, respectively and then cultured in the presence of herbicides to examine growth inhibition of the transformed E. coli. As a negative control, Arabidopsis thaliana-derived wild-type PPO (wild-type AtPPO1) was used, and wild-type AtPPO1 has sensitivity to PPO-based herbicides and its sequence information is available in GeneBank accession no. AX084732 (a nucleotide sequence of the gene is represented by SEQ ID NO: 10, and an amino acid sequence thereof is represented by SEQ ID NO: 9). As a positive control, Mutant AtPPO1 was used, in which amino acid replacements of Y426M (replacement of tyrosine by methionine at position 426) and S305L (replacement of serine by leucine at position 305) occur in the amino acid sequence of the wild-type AtPPO1 (an amino acid sequence is represented by SEQ ID NO: 11) (Li X, Volrath S L., N D B. G., Chilcott C E, Johnson M A, Ward E R, Law M D (2003) Development of protoporphyrinogen oxidase as an efficient selection marker for Agrobacterium tumefaciens-mediated transformation of maize. Plant physiology 133:736-747).
(§2) BT3(ΔPPO) strain was provided by Hokkaido University (Japan) and it is an E. coli strain which is deficient in hemG-type PPO and has Kanamycin resistance (Watanabe et al., (2001) Dual targeting of spinach protoporphyrinogen oxidase II to mitochondria and chloroplasts by alternative use of two in-frame […] codons. JBC 2047420481).
(§3) HVE-50 autoclave from Hirayama, HS2100A electronic scale from Hansung Instrument, CB-30V clean bench from Jeio Tech, JSI-200CL incubator from JSR, 1210 type UV-visible spectrophotometer from Thermo Fisher Scientific, MQ-200 photometer from Apogee, and Bio-Rad MyCycler as PCR machine were used. The autoclave was used under conditions of 121° C. and 15 minutes, and the incubator was used at 37° C. with lighting of 160˜200 μmol m^−2 s^−1 for a culture time of 14˜20 hours. LB medium (10 g/L of Bacto-Tryptone, 5 g/L of Yeast extract, 10 g/L of sodium chloride, 15 g/L of Bacto agar) and an antibiotic Chloramphenicol (Duchefa) were used.
(§4) To clone each of the CyPPO2, CyPPO4, CyPPO8 and CyPPO12 genes isolated and amplified in Example 1 into pACBB (its structure is shown in FIG. 2), 10 μl of a solution containing 4 μl of each PPO gene, […], 1 μl of 10× buffer A, 1 μl of 10× buffer B, 1 μl of ligase (RBC, 3 unit/μl) was prepared and allowed to react at 22° C. for 30 minutes. The reaction solution was added to 100 μl of DH5 alpha competent cells, and allowed to react on ice for 20 minutes and then left at 42° C. for 40 seconds. Thereafter, the cells were left on ice for 2 minutes, and then 1 ml of LB broth was added thereto, followed by incubation with shaking at 37° C. for 1 hour. The strains having each gene insert in the culture medium were harvested, and then cultured on LB agar medium containing chloramphenicol.
(§5) For seed culture of E. coli transformed with respective genes, single colonies thereof were cultured in 3 ml of LB broth containing chloramphenicol overnight, and each 100 μl thereof was sub-cultured in 3 ml of fresh LB broth until absorbance (OD600) reached 0.5˜1. They were diluted with LB broth to absorbance (OD600) of 0.5. 10-fold dilution of this diluted solution was performed with LB broth five times. Next, 10 μl of the diluted solution of the transformed E. coli culture was dropped on LB agar medium (petri dish) containing chloramphenicol and a variety of herbicide stocks at different concentrations (0˜400 μM). The LB agar plates were incubated at 37° C. At 16˜20 hours after culture, growth inhibition was examined with the naked eye. Further, growth inhibition of the strains cultured in a medium containing Tiafenacil was examined under light (lighting of 169 μmol m^−2s^−1) and dark conditions.

wild-type AtPPO1 = molecular target: T1, wild-type AtPPO1 (Arabidopsis thaliana, UniProt P55826); assay: as above; assay type: cell-based
T1 construct: expressed in transfected cells; host or cells: E. coli BT3(ΔPPO), pACBB vector
T1 sequence (P55826 35-537): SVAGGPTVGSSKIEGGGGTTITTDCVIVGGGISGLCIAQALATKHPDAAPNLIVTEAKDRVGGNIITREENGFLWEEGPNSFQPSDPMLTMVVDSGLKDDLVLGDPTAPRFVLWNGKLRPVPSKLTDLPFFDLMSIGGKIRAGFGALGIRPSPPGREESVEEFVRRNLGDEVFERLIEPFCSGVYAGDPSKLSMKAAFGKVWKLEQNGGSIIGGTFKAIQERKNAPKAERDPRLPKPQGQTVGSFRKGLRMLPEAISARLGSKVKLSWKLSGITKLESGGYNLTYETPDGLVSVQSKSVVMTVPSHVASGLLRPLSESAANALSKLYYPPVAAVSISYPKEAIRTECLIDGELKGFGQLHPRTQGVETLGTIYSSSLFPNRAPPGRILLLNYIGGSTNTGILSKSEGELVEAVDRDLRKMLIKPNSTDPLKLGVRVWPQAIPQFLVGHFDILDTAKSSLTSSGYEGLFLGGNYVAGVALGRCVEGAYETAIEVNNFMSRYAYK
Excerpt: as §1, §2, §3, §4, §5

Mutant AtPPO1 = molecular target: T2, Mutant AtPPO1 (Arabidopsis thaliana, UniProt P55826, S305L/Y426M); assay: as above; assay type: cell-based; settings: 37° C., 16~20 hours
T2 construct: expressed in transfected cells; host or cells: E. coli BT3(ΔPPO), pACBB vector
T2 sequence (P55826 35-537 S305L/Y426M): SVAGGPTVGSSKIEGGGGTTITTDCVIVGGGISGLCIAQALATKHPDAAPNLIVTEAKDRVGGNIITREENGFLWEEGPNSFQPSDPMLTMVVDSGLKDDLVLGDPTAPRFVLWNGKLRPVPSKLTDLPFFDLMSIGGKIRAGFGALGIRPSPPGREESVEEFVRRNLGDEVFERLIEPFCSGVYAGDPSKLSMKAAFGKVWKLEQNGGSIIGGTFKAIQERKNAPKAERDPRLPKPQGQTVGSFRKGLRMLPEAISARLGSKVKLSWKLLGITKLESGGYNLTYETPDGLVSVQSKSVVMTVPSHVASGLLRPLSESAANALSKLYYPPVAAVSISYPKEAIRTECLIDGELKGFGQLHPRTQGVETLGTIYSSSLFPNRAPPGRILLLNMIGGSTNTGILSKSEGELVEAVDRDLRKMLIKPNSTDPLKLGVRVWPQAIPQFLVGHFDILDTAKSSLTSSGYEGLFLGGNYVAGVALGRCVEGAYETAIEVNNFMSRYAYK
Excerpt: as §1, §2, §3, §4, §5

CyPPO12 = assay: as above; assay type: cell-based, Microcoleus vaginatus; settings: 37° C., 16~20 hours
Excerpt: as §1, §2, §3, §4, §5

[1] = system: mutant AtPPO1 transformant; assay: Herbicide spray test on Arabidopsis thaliana T2 plants; assay type: in vivo; settings: 2-3 ml of 0.5 μM Tiafenacil, 1 μM Saflufenacil, or 3 μM Fomesafen per plant
CyPPO2 transformant = assay: as above; assay type: in vivo; settings: 2-3 ml of 0.5 μM Tiafenacil, 1 μM Saflufenacil, or 3 μM Fomesafen per plant
Procedure: (§6) To examine whether herbicide resistance traits are maintained in the next generations of plants, respective T2 generation plants of Arabidopsis thaliana which were transformed with CyPPO2, CyPPO4 and CyPPO8 genes were subjected to an herbicide resistance test. 2-3 ml of 0.5 μM Tiafenacil, 1 μM Saflufenacil, or 3 μM Fomesafen was sprayed onto each Arabidopsis thaliana plant grown for about 4 weeks.

CyPPO4 transformant = assay: as above; assay type: in vivo; settings: 2-3 ml of 0.5 μM Tiafenacil, 1 μM Saflufenacil, or 3 μM Fomesafen per plant
Procedure: as §6

CyPPO8 transformant = assay: as above; assay type: in vivo; settings: 2-3 ml of 0.5 μM Tiafenacil, 1 μM Saflufenacil, or 3 μM Fomesafen per plant
Procedure: as §6

[2] = LB agar medium, 37° C., 16~20 hours

Structure (SMILES)	concentration at which growth inhibition was hardly observed (CyPPO4) [µM]	concentration at which growth inhibition was not / hardly observed (Mutant AtPPO1) [µM]	concentration at which growth inhibition was not / hardly observed (CyPPO12) [µM]	other results
O=C(O)c1cc(Oc2ccc(C(F)(F)F)cc2Cl)ccc1[N+](=O)[O-] [Acifluorfen]	400			
C#CCN(C)c1c(C#N)cnn1-c1nn2c(c1Cl)CCCC2 [Pyraclonil]		25	25	concentration at which the strain hardly grew (wild-type AtPPO1; [2]): 25 µM
CC(C)N(C)S(=O)(=O)NC(=O)c1cc(-n2c(=O)cc(C(F)(F)F)n(C)c2=O)c(F)cc1Cl [Saflufenacil]	25	25	25	outcome of plants at 7 days after spraying [1]: continued to grow without damage; outcome of plants at 7 days after spraying (CyPPO2 transformant): continued to grow without damage; outcome of plants at 7 days after spraying (CyPPO4 transformant): continued to grow without damage; outcome of plants at 7 days after spraying (CyPPO8 transformant): continued to grow without damage
CC(C)Oc1cc(-n2nc(C(C)(C)C)oc2=O)c(Cl)cc1Cl [Oxadiazon]		25	25	concentration at which growth inhibition began (wild-type AtPPO1; [2]): 0.5 µM
COC(=O)CCNC(=O)C(C)Sc1cc(-n2c(=O)cc(C(F)(F)F)n(C)c2=O)c(F)cc1Cl (stereo not drawn) [Tiafenacil]	25	25	25	outcome of plants at 7 days after spraying [1]: continued to grow without damage; growth at 1 μM under dark condition (wild-type AtPPO1; agar medium, 1 μM, dark condition): rather maintained; concentration at which growth was completely inhibited (wild-type AtPPO1; agar medium, both light and dark conditions): ≥ 5 µM; concentration at which growth was almost completely inhibited (wild-type AtPPO1; agar medium, light condition): 1 µM; outcome of plants at 7 days after spraying (CyPPO2 transformant): continued to grow without damage; outcome of plants at 7 days after spraying (CyPPO4 transformant): continued to grow without damage; outcome of plants at 7 days after spraying (CyPPO8 transformant): continued to grow without damage
Cc1nn(-c2cc(NS(C)(=O)=O)c(Cl)cc2Cl)c(=O)n1C(F)F [Sulfentrazone]	400	25	25	concentration at which growth inhibition began (wild-type AtPPO1; [2]): 0.5 µM
CS(=O)(=O)NC(=O)c1cc(Oc2ccc(C(F)(F)F)cc2Cl)ccc1[N+](=O)[O-] [Fomesafen]	400	≤ 25		outcome of plants at 7 days after spraying [1]: continued to grow without damage; concentration at which growth inhibition was observed (wild-type AtPPO1; [2]): 5 µM; outcome of plants at 7 days after spraying (CyPPO2 transformant): continued to grow without damage; outcome of plants at 7 days after spraying (CyPPO4 transformant): continued to grow without damage; outcome of plants at 7 days after spraying (CyPPO8 transformant): continued to grow without damage
C#CCN1C(=O)COc2cc(F)c(N3C(=O)C4=C(CCCC4)C3=O)cc21 [Flumioxazin]	25		25	
CC(C)=C1OC(=O)N(c2cc(OC3CCCC3)c(Cl)cc2F)C1=O [Pentoxazone]		25	25	
CCOC(=O)COc1cc(-c2nn(C)c(OC(F)F)c2Cl)c(F)cc1Cl [Pyraflufen-ethyl]		25	25	concentration at which growth inhibition began (wild-type AtPPO1; [2]): 0.5 µM
CCOc1cc(Oc2ccc(C(F)(F)F)cc2Cl)ccc1[N+](=O)[O-] [Oxyfluorfen]	400			concentration at which growth inhibition began (Mutant AtPPO1): 5 µM
C=CCOC(=O)C(C)(C)OC(=O)c1cc(-n2c(=O)cc(C(F)(F)F)n(C)c2=O)ccc1Cl [Butafenacil]		25		
